The NIST ThermoML archive (doi:10.1016/j.fluid.2017.11.013)
Where “and” joins values, the source holds several entries; their conditions need not be identical. Equal entries are not always repeated.

Conditions: Coaxial cylinder method

C=C [ethene]
Conditions | thermal conductivity
301.6 K, 7230 kPa, Fluid (supercritical or subcritical phases) | 0.06174 W/m/K
301.6 K, 7400 kPa, Fluid (supercritical or subcritical phases) | 0.06342 W/m/K
301.6 K, 7430 kPa, Fluid (supercritical or subcritical phases) | 0.06371 W/m/K
301.6 K, 7440 kPa, Fluid (supercritical or subcritical phases) | 0.06376 W/m/K
301.6 K, 7460 kPa, Fluid (supercritical or subcritical phases) | 0.06392 W/m/K
301.6 K, 7480 kPa, Fluid (supercritical or subcritical phases) | 0.06395 W/m/K
301.6 K, 7570 kPa, Fluid (supercritical or subcritical phases) | 0.06425 W/m/K
301.6 K, 7680 kPa, Fluid (supercritical or subcritical phases) | 0.06462 W/m/K
301.6 K, 7720 kPa, Fluid (supercritical or subcritical phases) | 0.06482 W/m/K
301.6 K, 7760 kPa, Fluid (supercritical or subcritical phases) | 0.06461 W/m/K
301.6 K, 7800 kPa, Fluid (supercritical or subcritical phases) | 0.06479 W/m/K
301.6 K, 7820 kPa, Fluid (supercritical or subcritical phases) | 0.06483 W/m/K
301.6 K, 7980 kPa, Fluid (supercritical or subcritical phases) | 0.06482 W/m/K
301.6 K, 8360 kPa, Fluid (supercritical or subcritical phases) | 0.0649 W/m/K
301.6 K, 9100 kPa, Fluid (supercritical or subcritical phases) | 0.0668 W/m/K
301.6 K, 10390 kPa, Fluid (supercritical or subcritical phases) | 0.0716 W/m/K
301.6 K, 12800 kPa, Fluid (supercritical or subcritical phases) | 0.07701 W/m/K
301.6 K, 14950 kPa, Fluid (supercritical or subcritical phases) | 0.08151 W/m/K
301.6 K, 18120 kPa, Fluid (supercritical or subcritical phases) | 0.08743 W/m/K
301.6 K, 20700 kPa, Fluid (supercritical or subcritical phases) | 0.09068 W/m/K
301.6 K, 20800 kPa, Fluid (supercritical or subcritical phases) | 0.09075 W/m/K
301.6 K, 25600 kPa, Fluid (supercritical or subcritical phases) | 0.09706 W/m/K
301.6 K, 31800 kPa, Fluid (supercritical or subcritical phases) | 0.1039 W/m/K
301.6 K, 40300 kPa, Fluid (supercritical or subcritical phases) | 0.1138 W/m/K
301.6 K, 45200 kPa, Fluid (supercritical or subcritical phases) | 0.1185 W/m/K
301.6 K, 50400 kPa, Fluid (supercritical or subcritical phases) | 0.1236 W/m/K
301.6 K, 55500 kPa, Fluid (supercritical or subcritical phases) | 0.1283 W/m/K
301.6 K, 59300 kPa, Fluid (supercritical or subcritical phases) | 0.132 W/m/K
301.6 K, 61000 kPa, Fluid (supercritical or subcritical phases) | 0.1337 W/m/K and 0.1336 W/m/K
301.6 K, 62000 kPa, Fluid (supercritical or subcritical phases) | 0.1342 W/m/K
301.6 K, 65000 kPa, Fluid (supercritical or subcritical phases) | 0.1366 W/m/K
301.6 K, 65300 kPa, Fluid (supercritical or subcritical phases) | 0.1372 W/m/K
301.6 K, 65700 kPa, Fluid (supercritical or subcritical phases) | 0.1378 W/m/K
301.6 K, 66000 kPa, Fluid (supercritical or subcritical phases) | 0.1378 W/m/K
301.6 K, 70000 kPa, Fluid (supercritical or subcritical phases) | 0.1414 W/m/K
302.21 K, 101 kPa, Gas | 0.02112 W/m/K
303.1 K, 101 kPa, Gas | 0.0207 W/m/K
425 K, 101 kPa, Gas | 0.0381 W/m/K
425.46 K, 500 kPa, Fluid (supercritical or subcritical phases) | 0.03821 W/m/K
425.46 K, 1000 kPa, Fluid (supercritical or subcritical phases) | 0.03832 W/m/K
425.46 K, 2500 kPa, Fluid (supercritical or subcritical phases) | 0.03937 W/m/K
425.46 K, 5000 kPa, Fluid (supercritical or subcritical phases) | 0.04226 W/m/K
425.46 K, 7300 kPa, Fluid (supercritical or subcritical phases) | 0.04435 W/m/K
425.46 K, 10000 kPa, Fluid (supercritical or subcritical phases) | 0.04845 W/m/K
425.46 K, 12200 kPa, Fluid (supercritical or subcritical phases) | 0.0528 W/m/K
425.46 K, 14600 kPa, Fluid (supercritical or subcritical phases) | 0.05769 W/m/K and 0.05771 W/m/K
425.46 K, 14800 kPa, Fluid (supercritical or subcritical phases) | 0.05814 W/m/K
425.46 K, 20000 kPa, Fluid (supercritical or subcritical phases) | 0.06783 W/m/K
425.46 K, 24900 kPa, Fluid (supercritical or subcritical phases) | 0.07364 W/m/K
425.46 K, 30000 kPa, Fluid (supercritical or subcritical phases) | 0.07726 W/m/K
425.46 K, 40600 kPa, Fluid (supercritical or subcritical phases) | 0.08392 W/m/K
425.46 K, 50500 kPa, Fluid (supercritical or subcritical phases) | 0.0908 W/m/K
425.46 K, 60700 kPa, Fluid (supercritical or subcritical phases) | 0.09875 W/m/K
425.46 K, 70300 kPa, Fluid (supercritical or subcritical phases) | 0.1051 W/m/K
425.46 K, 71800 kPa, Fluid (supercritical or subcritical phases) | 0.1068 W/m/K
425.46 K, 73700 kPa, Fluid (supercritical or subcritical phases) | 0.109 W/m/K
425.46 K, 75000 kPa, Fluid (supercritical or subcritical phases) | 0.1098 W/m/K
425.46 K, 79000 kPa, Fluid (supercritical or subcritical phases) | 0.1119 W/m/K
425.46 K, 81900 kPa, Fluid (supercritical or subcritical phases) | 0.1144 W/m/K
425.46 K, 89500 kPa, Fluid (supercritical or subcritical phases) | 0.1184 W/m/K
425.46 K, 93500 kPa, Fluid (supercritical or subcritical phases) | 0.1214 W/m/K
425.46 K, 97000 kPa, Fluid (supercritical or subcritical phases) | 0.1232 W/m/K
425.46 K, 100000 kPa, Fluid (supercritical or subcritical phases) | 0.1251 W/m/K
425.62 K, 101 kPa, Gas | 0.03809 W/m/K
